Assay results published in ChEMBL document CHEMBL3826883, “Discovery of potent and selective inhibitors of human aminopeptidases ERAP1 and ERAP2 by screening libraries of phosphorus-containing amino acid and dipeptide analogues” (Bioorg Med Chem Lett, 2016).

Columns and labels:
[1] = target: Endoplasmic reticulum aminopeptidase 1 (Homo sapiens, UniProt Q9NZ08); experiment: Inhibition of human ERAP1 preincubated for 30 to 60 mins followed by addition of Leu-AMC as substrate measured for 15 mins by spectrofluorimetric method
[2] = target: Endoplasmic reticulum aminopeptidase 2 (Homo sapiens, UniProt Q6P179); experiment: Inhibition of human ERAP2 preincubated for 30 to 60 mins followed by addition of Arg-AMC as substrate measured for 15 mins by spectrofluorimetric method
[3] = Inhibition of Plasmodium falciparum APN preincubated for 30 mins followed by addition of L-Arg-ACC as substrate measured for 15 to 30 mins by fluorescence analysis

Chain of Endoplasmic reticulum aminopeptidase 1 (Q9NZ08 whole entry): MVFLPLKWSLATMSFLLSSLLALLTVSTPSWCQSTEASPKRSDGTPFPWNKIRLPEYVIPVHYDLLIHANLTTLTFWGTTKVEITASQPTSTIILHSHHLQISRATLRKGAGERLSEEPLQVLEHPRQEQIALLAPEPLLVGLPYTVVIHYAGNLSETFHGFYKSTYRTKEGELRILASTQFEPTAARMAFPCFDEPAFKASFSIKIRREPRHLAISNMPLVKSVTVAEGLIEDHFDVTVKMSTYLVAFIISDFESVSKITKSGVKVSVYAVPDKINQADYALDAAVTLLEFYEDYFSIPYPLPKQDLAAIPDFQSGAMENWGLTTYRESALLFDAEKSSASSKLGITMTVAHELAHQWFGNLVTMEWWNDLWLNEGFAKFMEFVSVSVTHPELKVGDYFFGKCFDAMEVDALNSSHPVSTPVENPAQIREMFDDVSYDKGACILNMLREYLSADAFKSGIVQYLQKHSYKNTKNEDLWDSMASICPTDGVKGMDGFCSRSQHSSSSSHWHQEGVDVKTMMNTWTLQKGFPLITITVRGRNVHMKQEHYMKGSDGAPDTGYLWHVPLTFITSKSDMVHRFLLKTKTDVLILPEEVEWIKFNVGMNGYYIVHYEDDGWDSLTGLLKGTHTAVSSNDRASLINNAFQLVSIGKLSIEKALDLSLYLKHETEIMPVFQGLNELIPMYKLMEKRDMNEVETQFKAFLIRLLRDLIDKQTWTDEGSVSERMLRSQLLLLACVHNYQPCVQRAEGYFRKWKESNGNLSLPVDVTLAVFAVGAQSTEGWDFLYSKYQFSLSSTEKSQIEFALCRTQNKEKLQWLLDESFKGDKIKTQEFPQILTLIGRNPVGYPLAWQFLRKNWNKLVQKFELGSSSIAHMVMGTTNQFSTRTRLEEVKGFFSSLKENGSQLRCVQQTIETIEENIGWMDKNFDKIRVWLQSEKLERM
Chain of Endoplasmic reticulum aminopeptidase 2 (Q6P179 whole entry): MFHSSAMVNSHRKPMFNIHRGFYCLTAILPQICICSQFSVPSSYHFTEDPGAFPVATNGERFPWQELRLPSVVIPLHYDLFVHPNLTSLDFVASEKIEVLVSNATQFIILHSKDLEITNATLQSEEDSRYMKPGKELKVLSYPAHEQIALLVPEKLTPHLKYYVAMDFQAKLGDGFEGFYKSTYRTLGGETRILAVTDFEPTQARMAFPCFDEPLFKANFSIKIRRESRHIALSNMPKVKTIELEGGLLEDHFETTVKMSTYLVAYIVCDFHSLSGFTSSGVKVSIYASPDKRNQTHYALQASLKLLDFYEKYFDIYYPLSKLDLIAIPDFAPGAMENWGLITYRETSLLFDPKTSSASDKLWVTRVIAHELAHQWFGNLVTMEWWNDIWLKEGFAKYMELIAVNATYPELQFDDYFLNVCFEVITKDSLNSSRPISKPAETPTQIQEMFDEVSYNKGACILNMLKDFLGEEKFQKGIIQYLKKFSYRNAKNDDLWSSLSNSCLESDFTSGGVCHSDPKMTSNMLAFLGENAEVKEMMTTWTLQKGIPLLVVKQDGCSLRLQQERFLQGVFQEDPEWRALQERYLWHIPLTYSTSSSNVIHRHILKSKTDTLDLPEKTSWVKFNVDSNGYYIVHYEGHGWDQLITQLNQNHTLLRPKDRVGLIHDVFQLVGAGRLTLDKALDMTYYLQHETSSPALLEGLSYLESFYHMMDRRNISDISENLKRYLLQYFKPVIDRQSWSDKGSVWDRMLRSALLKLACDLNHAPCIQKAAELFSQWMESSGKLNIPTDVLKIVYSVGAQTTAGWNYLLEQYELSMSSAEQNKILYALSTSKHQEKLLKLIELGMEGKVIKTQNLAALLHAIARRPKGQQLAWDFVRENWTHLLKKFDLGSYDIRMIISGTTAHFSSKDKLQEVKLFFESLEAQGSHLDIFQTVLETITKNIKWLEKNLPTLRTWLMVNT

Row | SMILES | Ki [1] | Ki [2] | Ki [3]
1 | CC(C)C[C@H](N)P(=O)(O)O [LEUCINE PHOSPHONIC ACID] | 5.08 µM | > 250 µM | –
2 | NC(CN1CCOCC1)P(=O)(O)O (configuration not stated) | > 250 µM | > 250 µM | –
3 | CC(C)C[C@@H](N)P(=O)(O)O | 249 µM | > 250 µM | –
4 | NC(CNCCN1CCNCC1)P(=O)(O)O (configuration not stated) | > 250 µM | – | –
5 | NC(CNCCc1ccccc1)P(=O)(O)O (configuration not stated) | > 250 µM | – | –
6 | NCc1ccc(CNCC(N)P(=O)(O)O)cc1 (configuration not stated) | > 250 µM | – | –
7 | CC(C)(C)c1ccc(CNCC(N)P(=O)(O)O)cc1 (configuration not stated) | > 250 µM | – | –
8 | NC(CNC1CCCCCC1)P(=O)(O)O (configuration not stated) | > 250 µM | – | –
9 | N[C@@H](CCc1ccccc1)P(=O)(O)C[C@@H](Cc1ccccc1)C(=O)O (mixture of isomers) | 6.27 µM | 1.03 µM | –
10 | NCC(N)P(=O)(O)CC(Cc1ccccc1)C(=O)O (configuration not stated) | > 250 µM | – | –
11 | NC(CCc1ccccc1)P(=O)(O)CC(Cc1ccc(O)cc1)C(=O)O (configuration not stated) | 6.47 µM | 1.04 µM | –
12 | CN(C)CCNCC(N)P(=O)(O)O (configuration not stated) | > 250 µM | > 250 µM | –
13 | NCc1cccc(CC(CP(=O)(O)C(N)CCc2ccccc2)C(=O)O)c1 (configuration not stated) | – | > 250 µM | –
14 | NC(CNC1CCCCCC1)P(=O)(O)CC(Cc1ccccc1)C(=O)O (configuration not stated) | > 250 µM | – | –
15 | CCCNCC(N)P(=O)(O)O (configuration not stated) | > 250 µM | > 250 µM | –
16 | NCc1ccc(CC(CP(=O)(O)C(N)CCc2ccccc2)C(=O)O)cc1 (configuration not stated) | – | > 250 µM | –
17 | CCCNCC(N)P(=O)(O)CC(Cc1ccccc1)C(=O)O (configuration not stated) | > 250 µM | – | –
18 | COc1ccc(CCNCC(N)P(=O)(O)O)cc1 (configuration not stated) | > 250 µM | – | –
19 | NCc1cccc(CC(CP(=O)(O)C(N)CCc2cccnc2)C(=O)O)c1 (configuration not stated) | – | > 250 µM | –

Row | SMILES | Ki [1] | Ki [2] | Ki [3]
20 | NC(CNC1CCCCC1)P(=O)(O)CC(Cc1ccccc1)C(=O)O (configuration not stated) | > 250 µM | – | –
21 | NC(CN1CCCCC1)P(=O)(O)O (configuration not stated) | > 250 µM | – | –
22 | Cc1cc(C)cc(CC(CP(=O)(O)C(N)CCc2ccccc2)C(=O)O)c1 (configuration not stated) | > 250 µM | > 250 µM | –
23 | NC(CNCC1CCCO1)P(=O)(O)O (configuration not stated) | > 250 µM | > 250 µM | –
24 | CNCC(N)P(=O)(O)O (configuration not stated) | > 250 µM | > 250 µM | –
25 | CCCCCCNCC(N)P(=O)(O)O (configuration not stated) | > 250 µM | – | –
26 | CC(C)CNCC(N)P(=O)(O)CC(Cc1ccccc1)C(=O)O (configuration not stated) | > 250 µM | – | –
27 | COc1ccc(CNCC(N)P(=O)(O)O)cc1 (configuration not stated) | > 250 µM | – | –
28 | NC(CCc1ccccc1)P(=O)(O)CC(Cc1ccccc1)C(=O)O (configuration not stated) | 19.1 µM | 0.35 µM | 0.078 µM
29 | NCC(N)P(=O)(O)O (configuration not stated) | > 250 µM | – | –
30 | NC(CNC1CCCCC1)P(=O)(O)O (configuration not stated) | > 250 µM | – | –
31 | COc1ccc(CCNCC(N)P(=O)(O)CC(Cc2ccccc2)C(=O)O)cc1 (configuration not stated) | > 250 µM | – | –
32 | Nc1ccc(CNCC(N)P(=O)(O)O)cc1 (configuration not stated) | > 250 µM | – | –
33 | NC(CNCc1ccccc1)P(=O)(O)O (configuration not stated) | > 250 µM | 106 µM | –
34 | NC1CCCCC1NCC(N)P(=O)(O)O (configuration not stated) | > 250 µM | – | –
35 | NC(CNCC1CCNCC1)P(=O)(O)O (configuration not stated) | > 250 µM | – | –
36 | CC(NCC(N)P(=O)(O)O)c1ccccc1 (configuration not stated) | > 250 µM | > 250 µM | –
37 | NCCNCC(N)P(=O)(O)O (configuration not stated) | > 250 µM | > 250 µM | –
